Tests used:
[1] = target: T1, human V1aR (Homo sapiens, UniProt P37288); test: Inhibition activity on human V1aR (Fluo-4 calcium assay, HEK293/human V1aR stably transfected cells, vasopressin 3 nM); format: cell-based; details: calcium signal
T1 construct: expressed in transfected cells
Method: The inhibition effect of the compounds of the present invention on the activity of human V1aR protein expressed in HEK293/human V1aR stably transfected cells was determined by the following experimental method:
The pcDNA3.1-V1aR plasmid was transferred into HEK293 cells with the Lipofectamine® 3000 transfection reagent; G418 was added on the next day to screen, and monoclonal cell lines were selected.
(§1) HEK293/human V1aR stably transfected cells were inoculated in a 96-well plate with an inoculation density of 25,000 cells/well one day in advance. On the next day, a loading buffer containing Fluo-4 dye was formulated using the reagents in the Fluo-4 NW calcium assay kit, and the culture medium was then removed; 100 μl of the loading buffer containing Fluo-4 dye were added to each well, and the plate was incubated at 37° C. for 30 minutes. After that, the plate was moved to room temperature and equilibrated for 10 minutes. The compounds were formulated into concentration gradients of 10^6, 10^5, 10^4, 10^3, 10^2 and 10^1 nM. 1 μl of the compounds in each concentration was added to each well, and the plate was incubated at room temperature for 10 minutes. […] IC50 values of the compounds were calculated by Graphpad prism software using fluorescence signals corresponding to different concentrations.
The inhibition activity of the compounds of the present invention on human V1aR was determined by the above test, and the obtained IC50 values are shown in Table 2.

[2] = target: T2, human V1bR (Homo sapiens, UniProt P47901); test: Inhibition activity on human V1bR (Fluo-4 calcium assay, HEK293/human V1bR pool cells, vasopressin 3 nM); format: cell-based; details: calcium signal
T2 construct: expressed in transfected cells; host or cells: HEK293 (G418-selected pool)
T2 sequence (P47901 1-424): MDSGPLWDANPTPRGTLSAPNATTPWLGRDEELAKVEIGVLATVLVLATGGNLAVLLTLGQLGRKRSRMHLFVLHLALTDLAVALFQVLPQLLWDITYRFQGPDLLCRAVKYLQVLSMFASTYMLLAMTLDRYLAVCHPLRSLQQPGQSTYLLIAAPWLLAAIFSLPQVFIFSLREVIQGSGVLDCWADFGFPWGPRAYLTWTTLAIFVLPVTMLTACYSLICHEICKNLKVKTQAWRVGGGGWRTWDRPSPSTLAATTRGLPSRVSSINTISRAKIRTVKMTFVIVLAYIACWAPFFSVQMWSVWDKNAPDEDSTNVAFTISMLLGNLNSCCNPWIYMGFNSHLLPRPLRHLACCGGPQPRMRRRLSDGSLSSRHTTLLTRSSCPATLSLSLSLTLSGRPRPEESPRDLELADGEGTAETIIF
Method: The inhibition effect of the compounds of the present invention on the activity of human V1bR protein expressed in HEK293/human V1bR cells was determined by the following experimental method:
The pcDNA3.1-V1bR plasmid was transferred into HEK293 cells with the Lipofectamine® 3000 transfection reagent; G418 was added on the next day, and the HEK293/human V1bR pool cell lines were obtained.
as §1, with “V1bR pool” for “V1aR stably transfected”

[3] = target: T3, human V2R (Homo sapiens, UniProt P30518); test: Inhibition activity on human V2R (cAMP HTRF assay, HEK293/human V2R pool cells, vasopressin); format: cell-based
T3 construct: expressed in transfected cells; host or cells: HEK293 (G418-selected pool)
T3 sequence (P30518 whole entry): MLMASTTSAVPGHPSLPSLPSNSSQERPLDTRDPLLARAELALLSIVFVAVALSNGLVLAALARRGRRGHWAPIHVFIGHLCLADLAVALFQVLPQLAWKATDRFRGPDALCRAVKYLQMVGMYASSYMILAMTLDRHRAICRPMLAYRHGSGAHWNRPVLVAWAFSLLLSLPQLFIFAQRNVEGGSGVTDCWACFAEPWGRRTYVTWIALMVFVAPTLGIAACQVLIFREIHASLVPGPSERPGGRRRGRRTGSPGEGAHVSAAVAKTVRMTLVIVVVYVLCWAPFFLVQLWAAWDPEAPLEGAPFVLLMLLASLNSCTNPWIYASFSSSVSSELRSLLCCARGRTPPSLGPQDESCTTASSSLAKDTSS
Method: The inhibition effect of the compounds of the present invention on the activity of human V2R protein expressed in HEK293/human V2R cells was determined by the following experimental method:
The pcDNA3.1-V2R plasmid was transferred into HEK293 cells with the Lipofectamine® 3000 transfection reagent; G418 was added on the next day, and the HEK293/human V2R pool cell lines were obtained.
HEK293/human V2R pool cells were digested with the cell dissociation solution (enzyme-free), thereby dissociating the cells from the cell culture dish into individual cells. After completion, the cell solution was blown well, and centrifuged to remove the supernatant. The cells were re-suspended in the test buffer 1 (1×HBSS+20 mM HEPES+0.1% BSA) and counted. The cell density was adjusted to 1250 cells/5 μl, i.e., 2.5*10^5/ml.
The compounds were formulated into a series of concentrations of 20 mM, 6.67 mM, 2.22 mM, 0.74 mM, 0.25 mM, 0.08 mM, 27.4 μM, 9.14 μM, 3.05 μM, 1.02 μM, 0.34 μM and 0 μM (DMSO) with pure DMSO. The compounds were then formulated into a 4-fold use concentration with the test buffer 2 (test buffer 1+1 mM IBMX).
Agonist: 460 μM vasopressin was used as the mother liquor, formulated as a 2 μM solution with DMSO, which was then diluted to a 0.5 nM solution with the test buffer 2.
Standard: The first point was 20 μl of a stock solution (2848 nM), which was diluted successively to a total of eleven concentrations in a 4-fold concentration gradient with the test buffer 1 from the second point.
1. The well-mixed cells were added to a 384-well plate (5 μl/well) without changing the tip.
2. The test compounds and positive compound formulated were added (2.5 μl/well), and the tips were changed.
3. The plate was centrifuged at 1000 rpm for 1 min, shaken for 30 sec to mix well, and incubated at room temperature for 30 min.
4. The standard curve wells were added with the test buffer 2 (5 μl/well).
5. The agonist formulated was added (2.5 μl/well), and the tips were changed; the plate was centrifuged at 1000 rpm for 1 min, shaken for 30 sec to mix well, and incubated at room temperature for 30 min.
6. cAMP-d2 (a component in the cAMP dynamic 2 kit) and Anti-cAMP-Eu-Cryptate (a component in the cAMP dynamic 2 kit) were formulated in the dark, which were then mixed well with cAMP lysate (a component in the cAMP dynamic 2 kit) in a ratio of 1:4. Each well was added with the formulated cAMP-d2 solution (5 μl/well), followed by addition of Anti-cAMP-Eu-Cryptate (5 μl/well). The plate was shaken for 30 sec to mix well, and incubated in the dark at room temperature for 1 h.
4) Plate reading: The HTRF signals were read by the PheraStar multi-function microplate reader.
The data in this test was processed using the data processing software Graphpad Prism.
The inhibition activity of the compounds of the present invention on human V2R was determined by the above test, and the obtained IC50 values are shown in Table 4.

[4] = target: T4, human OTR (Homo sapiens, UniProt P30559); test: Inhibition activity on human OTR (Fluo-4 calcium assay, HEK293/human OTR stably transfected cells, oxytocin 3 nM); format: cell-based; details: calcium signal
T4 construct: expressed in transfected cells
T4 sequence (P30559 1-389): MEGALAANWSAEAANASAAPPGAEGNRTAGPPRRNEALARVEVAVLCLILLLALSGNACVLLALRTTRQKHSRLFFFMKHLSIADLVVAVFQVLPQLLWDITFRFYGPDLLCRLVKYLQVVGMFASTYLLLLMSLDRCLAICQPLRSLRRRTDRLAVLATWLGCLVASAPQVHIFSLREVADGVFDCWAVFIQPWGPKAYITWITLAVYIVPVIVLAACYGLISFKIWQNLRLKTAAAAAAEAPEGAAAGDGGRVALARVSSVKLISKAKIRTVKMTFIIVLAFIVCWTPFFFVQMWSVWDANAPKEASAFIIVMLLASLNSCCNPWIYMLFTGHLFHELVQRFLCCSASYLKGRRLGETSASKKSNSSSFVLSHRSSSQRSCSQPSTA
Method: The inhibition effect of the compounds of the present invention on the activity of human OTR protein expressed in HEK293/human OTR stably transfected cells was determined by the following experimental method:
The pcDNA3.1-hOTR plasmid was transferred into HEK293 cells with the Lipofectamine® 3000 transfection reagent; G418 was added on the next day to screen, and monoclonal cell lines were selected.
HEK293/human OTR stably transfected cells were inoculated in a 96-well plate with an inoculation density of 25,000 cells/well one day in advance. On the next day, a loading buffer containing Fluo-4 dye was formulated using the reagents in the Fluo-4 NW calcium assay kit, and the culture medium was then removed; 100 μl of the loading buffer containing Fluo-4 dye were added to each well, and the plate was incubated at 37° C. for 30 minutes. After that, the plate was moved to room temperature and equilibrated for 10 minutes. The compounds were formulated into concentration gradients of 10^6, 10^5, 10^4, 10^3, 10^2 and 10^1 nM. 1 μl of the compounds in each concentration was added to each well, and the plate was incubated at room temperature for 10 minutes. 50 μl of oxytocin polypeptide (3 nM) were automatically added by the machine, and the values were immediately detected at 494/516 nM by the flexstation 3 microplate reader. IC50 values of the compounds were calculated by Graphpad prism software using fluorescence signals corresponding to different concentrations.
The inhibition activity of the compounds of the present invention on human OTR was determined by the above test, and the obtained IC50 values are shown in Table 1.

[5] = Pharmacokinetics assay in rats after intragastrical administration; details: both, Sprague-Dawley, rat, plasma, po, 2 mg/kg
Method: Rats were used as test animals. […] The pharmacokinetic behavior of the compounds of the present invention was studied and evaluated in rats.
After an overnight fast, SD rats were administered intragastrically the test compounds at an administration dosage of 2.0 mg/kg and an administration volume of 10.0 mL/kg.
0.2 mL of blood was taken from the orbital sinus before administration and at 0.5, 1.0, 2.0, 4.0, 6.0, 8.0, 11.0 and 24.0 hours after administration. The samples were stored in heparinized tubes, and centrifuged for 10 minutes at 4° C. at 3,500 rpm to separate the blood plasma. The plasma samples were stored at −20° C. The rats were fed 2 hours after administration.
The content of the test compounds in the plasma of rats after intragastrical administration of the test compounds at different concentrations was determined: 25 μL of rat plasma at each time after administration was taken, added with 50 μL of the internal standard solution of camptothecin (100 ng/mL) and 200 μL of acetonitrile, vortex-mixed for 5 minutes, and centrifuged for 10 minutes (4000 rpm). 1.0 μL of the supernatant was taken from the plasma samples for LC/MS/MS analysis.

T1 sequence (P37288 whole entry): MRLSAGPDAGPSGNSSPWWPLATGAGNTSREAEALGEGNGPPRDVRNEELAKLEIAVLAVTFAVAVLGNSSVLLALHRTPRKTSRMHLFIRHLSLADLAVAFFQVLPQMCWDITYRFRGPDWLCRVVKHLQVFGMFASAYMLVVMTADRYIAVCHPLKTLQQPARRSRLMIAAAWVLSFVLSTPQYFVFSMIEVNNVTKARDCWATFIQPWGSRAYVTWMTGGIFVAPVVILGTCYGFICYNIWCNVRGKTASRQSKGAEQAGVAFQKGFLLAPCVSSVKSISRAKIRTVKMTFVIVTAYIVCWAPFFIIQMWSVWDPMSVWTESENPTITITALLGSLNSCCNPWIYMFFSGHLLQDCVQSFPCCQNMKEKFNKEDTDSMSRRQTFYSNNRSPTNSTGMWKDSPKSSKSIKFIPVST

| Structure (SMILES) | IC50 [1] [µM] | IC50 [2] [µM] | IC50 [3] [µM] | IC50 [4] [µM] | AUC [5] [ng·h/mL] | CL/F [5] [mL/min/kg] | Cmax [5] [ng/mL] | MRT [5] [h] | Vd/F [5] [L/kg] | half-life [5] [h] |
| --- | --- | --- | --- | --- | --- | --- | --- | --- | --- | --- |
| COc1ccc(-n2c(COC3CCOCC3)nnc2N2C[C@@H]3C[C@]3(c3ccc(F)cc3Cl)C2)cn1 [Example 2, (1S,5R)-1-(2-Chloro-4-fluorophenyl)-3-(4-(6-methoxypyridin-3-yl)-5-(((tetrahydro-2H-pyran-4-yl)oxy)methyl)-4H-1,2,4-triazol-3-yl)-3-azabicyclo[3.1.0]hexane] | 4.7 |  |  |  |  |  |  |  |  |  |
| COc1ccc(-n2c(CO[C@H]3CCOC3)nnc2N2C[C@@H]3C[C@]3(c3ccc(F)cc3Cl)C2)cn1 [Example 3, (1S,5R)-1-(2-Chloro-4-fluorophenyl)-3-(4-(6-methoxypyridin-3-yl)-5-((((S)-tetrahydrofuran-3-yl)oxy)methyl)-4H-1,2,4-triazol-3-yl)-3-azabicyclo[3.1.0]hexane] | 7.5 | 56.7 | 23 |  |  |  |  |  |  |  |
| COc1ccc(-n2c(C(F)F)nnc2N2C[C@@H]3C[C@]3(c3ccc(F)cc3Cl)C2)cn1 [Example 13, (1S,5R)-1-(2-Chloro-4-fluorophenyl)-3-(5-(difluoromethyl)-4-(6-methoxypyridin-3-yl)-4H-1,2,4-triazol-3-yl)-3-azabicyclo[3.1.0]hexane] | 1.9 |  |  | 0.052 |  |  |  |  |  |  |
| [2H]C([2H])([2H])OCc1nnc(N2C[C@@H]3C[C@]3(c3ccc(F)cc3Cl)C2)n1-c1ccc(OC)nc1 [Example 14, (1S,5R)-1-(2-Chloro-4-fluorophenyl)-3-(5-((methoxy-d3)methyl)-4-(6-methoxypyridin-3-yl)-4H-1,2,4-triazol-3-yl)-3-azabicyclo[3.1.0]hexane] |  | 20.5 | 10.4 | 0.068 |  |  |  |  |  |  |

The remaining lines, values ahead:

| IC50 [1] [µM] | IC50 [2] [µM] | IC50 [3] [µM] | IC50 [4] [µM] | AUC [5] [ng·h/mL] | CL/F [5] [mL/min/kg] | Cmax [5] [ng/mL] | MRT [5] [h] | Vd/F [5] [L/kg] | half-life [5] [h] | Structure (SMILES) |
| --- | --- | --- | --- | --- | --- | --- | --- | --- | --- | --- |
| 1 |  |  | 0.131 |  |  |  |  |  |  | COCc1nnc(N2C[C@@H]3C[C@]3(c3ccc(F)cc3Cl)C2)n1-c1ccc2c(c1)OCO2 [Example 5, (1S,5R)-3-(4-(Benzo[d][1,3]dioxol-5-yl)-5-(methoxymethyl)-4H-1,2,4-triazol-3-yl)-1-(2-chloro-4-fluorophenyl)-3-azabicyclo[3.1.0]hexane] |
| 2 | 12.4 | 90 |  |  |  |  |  |  |  | COc1ccc(-n2c(C)nnc2N2C[C@@H]3C[C@]3(c3ccc(F)cc3Cl)C2)cn1 [Example 7, (1S,5R)-1-(2-Chloro-4-fluorophenyl)-3-(4-(6-methoxypyridin-3-yl)-5-methyl-4H-1,2,4-triazol-3-yl)-3-azabicyclo[3.1.0]hexane] |
| 3 | 43.3 |  | 0.023 | 1980 ± 1020 | 23.3 ± 18 | 635 ± 273 | 2.18 ± 0.24 | 1.94 ± 0.983 | 1.08 ± 0.21 | COCc1nnc(N2CC3CC3(c3ccc(F)cc3Cl)C2)n1-c1ccc(OC)nc1 (stereo not drawn) [Example 8, 1-(2-Chloro-4-fluorophenyl)-3-(5-(methoxymethyl)-4-(6-methoxypyridin-3-yl)-4H-1,2,4-triazol-3-yl)-3-azabicyclo[3.1.0]hexane] |
|  |  |  | 0.624 |  |  |  |  |  |  | COCc1nnc(N2C[C@H]3C[C@@]3(c3ccc(F)cc3Cl)C2)n1-c1ccc(OC)nc1 [Example 10, (1R,5S)-1-(2-Chloro-4-fluorophenyl)-3-(5-(methoxymethyl)-4-(6-methoxypyridin-3-yl)-4H-1,2,4-triazol-3-yl)-3-azabicyclo[3.1.0]hexane] |
|  | 7.8 | 6.8 | 0.001 | 3980 ± 2970 | 12.6 ± 8.03 | 405 ± 110 | 5.82 ± 2.73 | 2.46 ± 0.706 | 2.86 ± 1.27 | COc1ccc(-n2c(COC(F)F)nnc2N2C[C@@H]3C[C@]3(c3ccc(F)cc3Cl)C2)cn1 [Example 11, (1S,5R)-1-(2-Chloro-4-fluorophenyl)-3-(5-((difluoromethoxy)methyl)-4-(6-methoxypyridin-3-yl)-4H-1,2,4-triazol-3-yl)-3-azabicyclo[3.1.0]hexane] |

From patent US20210040073A1, “AZABICYCLO-SUBSTITUTED TRIAZOLE DERIVATIVE, PREPARATION METHOD THEREOF, AND APPLICATION OF SAME IN MEDICINE” (Jiangsu Hengrui Medicine Co., Ltd., priority 2016, published 2021)
